Measured values reported in US11524968B2, “Heterocyclic compound as a protein kinase inhibitor” (HK inno.N Corporation, priority 2017, dated 2022).

Biological target: JAK1 (Homo sapiens (Human), UniProt P23458)
Test: Analysis of JAK1 activity inhibition ability (ADP-Glo Kinase Assay)
Assay type: biochemical
Details: JAK1 enzyme, ADP-Glo luminescence, ATP 250 uM, IRS-itide substrate, 30° C. 40 minutes; read-out: IC50
Procedure, shortened: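 ADP-Glo luminescence read-out of ADP production, with IC50 taken as the concentration halving JAK1 activity relative to control. Enzyme was incubated 40 min at 30 °C with compound, IRS-itide (40 ng/mL) and ATP (250 uM), concentrations as prepared in pH 7.5 Tris-HCl/MgCl2/BSA/DTT buffer.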

Sequence of JAK1 (P23458 whole entry): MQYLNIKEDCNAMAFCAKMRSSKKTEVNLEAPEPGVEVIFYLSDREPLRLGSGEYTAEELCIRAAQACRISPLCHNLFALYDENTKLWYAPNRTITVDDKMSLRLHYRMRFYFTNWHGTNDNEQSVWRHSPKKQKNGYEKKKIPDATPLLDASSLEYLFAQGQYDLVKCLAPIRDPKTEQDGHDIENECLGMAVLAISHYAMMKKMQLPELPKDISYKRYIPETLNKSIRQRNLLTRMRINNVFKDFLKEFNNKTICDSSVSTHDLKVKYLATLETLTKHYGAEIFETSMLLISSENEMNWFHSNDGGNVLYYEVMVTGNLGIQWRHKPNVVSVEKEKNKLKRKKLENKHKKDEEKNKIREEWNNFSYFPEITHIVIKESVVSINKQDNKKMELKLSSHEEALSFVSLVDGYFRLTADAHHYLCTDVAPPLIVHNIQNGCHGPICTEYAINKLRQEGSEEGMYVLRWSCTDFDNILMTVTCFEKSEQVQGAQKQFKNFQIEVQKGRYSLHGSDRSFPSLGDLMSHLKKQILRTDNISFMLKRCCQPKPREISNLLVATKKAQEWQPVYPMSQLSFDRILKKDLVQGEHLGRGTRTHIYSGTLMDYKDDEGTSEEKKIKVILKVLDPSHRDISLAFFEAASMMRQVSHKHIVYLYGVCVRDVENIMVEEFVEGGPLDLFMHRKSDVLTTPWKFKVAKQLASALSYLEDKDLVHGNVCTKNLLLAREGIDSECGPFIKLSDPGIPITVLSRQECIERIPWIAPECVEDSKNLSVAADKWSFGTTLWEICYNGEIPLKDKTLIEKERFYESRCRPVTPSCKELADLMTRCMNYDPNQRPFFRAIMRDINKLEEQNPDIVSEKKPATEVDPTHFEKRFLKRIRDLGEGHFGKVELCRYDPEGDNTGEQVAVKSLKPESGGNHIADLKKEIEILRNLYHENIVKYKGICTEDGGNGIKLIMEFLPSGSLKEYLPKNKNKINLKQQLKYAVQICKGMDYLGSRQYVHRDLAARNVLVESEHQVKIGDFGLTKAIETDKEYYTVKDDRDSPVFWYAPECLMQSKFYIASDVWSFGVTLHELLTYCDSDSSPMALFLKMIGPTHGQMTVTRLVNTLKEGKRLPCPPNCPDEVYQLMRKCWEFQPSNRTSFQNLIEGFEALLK

N#CCC(=O)N1CCC=C(c2cc(NC(=O)C3CC3)nc3[nH]ccc23)C1 [Example 420, N-(4-(1-(2-cyanoacetyl)-1,2,5,6-tetrahydropyridin-3-yl)-1H-pyrrolo[2,3-b]pyridin-6-yl)cyclopropanecarboxamide]
IC50: 20 to 200 nM

CC(C)(C)OC(=O)N1CC=C(c2cc(NC(=O)C3CC3)nc3[nH]ccc23)CC1 [Example 454, tert-butyl 4-(6-(cyclopropanecarboxamido)-1H-pyrrolo[2,3-b]pyridin-4-yl)-3,6-dihydropyridine-1 (2H)-carboxylate]
IC50: 20 to 200 nM

CC1CN(C(=O)c2cc(F)cc(F)c2)CC=C1c1cc(NC(=O)C2CC2)nc2[nH]ccc12 (stereo not drawn) [Example 358, N-(4-(1-(3,5-difluorobenzoyl)-3-methyl-1,2,3,6-tetrahydropyridin-4-yl)-1H-pyrrolo[2,3-b]pyridin-6-yl)cyclopropanecarboxamide]
IC50: 20 to 200 nM

CCS(=O)(=O)Nc1ccc(-c2cc(NC(=O)C3CC3)nc3[nH]ccc23)cc1F [Example 1, N-(4-(4-(ethylsulfonamido)-3-fluorophenyl)-1H-pyrrolo[2,3-b]pyridin-6-yl)cyclopropanecarboxamide]
IC50: < 20 nM

CC1CN(C(=O)Cc2cccc(Br)c2)CC=C1c1cc(NC(=O)C2CC2)nc2[nH]ccc12 (stereo not drawn) [Example 347, N-(4-(1-(2-(3-bromophenyl)acetyl)-3-methyl-1,2,3,6-tetrahydropyridin-4-yl)-1H-pyrrolo[2,3-b]pyridin-6-yl)cyclopropanecarboxamide]
IC50: 20 to 200 nM

O=C(Nc1cc(-c2ccc(CC(=O)N3CCC(F)(F)C3)cc2)c2cc[nH]c2n1)C1CC1 [Example 569, N-(4-(4-(2-(3,3-difluoropyrrolidin-1-yl)-2-oxoethyl)phenyl)-1H-pyrrolo[2,3-b]pyridin-6-yl)cyclopropanecarboxamide]
IC50: < 20 nM

CCc1cc(-c2cc(NC(=O)C3CC3)[n+]([O-])c3[nH]ccc23)ccc1NS(=O)(=O)CC [Example 135, 6-(cyclopropanecarboxamido)-4-(3-ethyl-4-(ethylsulfonamido)phenyl)-1H-pyrrolo[2,3-b]pyridine 7-oxide]
IC50: 20 to 200 nM

C[C@@H]1CN(C(=O)c2ccnc(F)c2F)CC=C1c1cc(NC(=O)C2CC2)nc2[nH]ccc12 [Example 396, (S)—N-(4-(1-(2,3-difluoroisonicotinoyl)-3-methyl-1,2,3,6-tetrahydropyridin-4-yl)-1H-pyrrolo[2,3-b]pyridin-6-yl)cyclopropanecarboxamide]
IC50: < 20 nM

N#CCC1(N2CC=C(c3cc(NC(=O)C4CC4)nc4[nH]ccc34)CC2)CN(C2CCN(C(=O)c3nc(C(F)(F)F)cs3)CC2)C1 [Example 621, N-(4-(1-(3-(cyanomethyl)-1-(1-(4-(trifluoromethyl)thiazole-2-carbonyl)piperidin-4-yl)azetidin-3-yl)-1,2,3,6-tetrahydropyridin-4-yl)-1H-pyrrolo[2,3-b]pyridin-6-yl)cyclopropanecarboxamide]
IC50: 20 to 200 nM

O=C(Nc1cc(C2=CCN(S(=O)(=O)c3ccc(F)c(F)c3)CC2)c2cc[nH]c2n1)C1CC1 [Example 173, N-(4-(1-((3,4-difluorophenyl)sulfonyl)-1,2,3,6-tetrahydropyridin-4-yl)-1H-pyrrolo[2,3-b]pyridin-6-yl)cyclopropanecarboxamide]
IC50: 20 to 200 nM

O=C(Nc1cc(C2=CCN(C(=O)n3ccnc3)CC2)c2cc[nH]c2n1)C1CC1 [Example 451, N-(4-(1-(1H-imidazole-1-carbonyl)-1,2,3,6-tetrahydropyridin-4-yl)-1H-pyrrolo[2,3-b]pyridin-6-yl)cyclopropanecarboxamide]
IC50: 20 to 200 nM

C[C@@H]1CN(C(=O)CC2(C#N)CC2)CC=C1c1cc(NC(=O)C2CC2)nc2[nH]ccc12 [Example 415, (S)—N-(4-(1-(2-(1-cyanocyclopropyl)acetyl)-3-methyl-1,2,3,6-tetrahydropyridin-4-yl)-1H-pyrrolo[2,3-b]pyridin-6-yl)cyclopropanecarboxamide]
IC50: < 20 nM

CS(=O)(=O)N1CCC(n2cc(-c3cc(NC(=O)C4CC4)nc4[nH]ccc34)cn2)CC1 [Example 607, N-(4-(1-(1-(methylsulfonyl)piperidin-4-yl)-1H-pyrazol-4-yl)-1H-pyrrolo[2,3-b]pyridin-6-yl)cyclopropanecarboxamide]
IC50: 20 to 200 nM

O=C(Nc1nc(-c2ccc(NS(=O)(=O)c3ccc(F)c(F)c3)cc2)c2cc[nH]c2n1)C1CC1 [Example 181, N-(4-(4-((3,4-difluorophenyl)sulfonamido)phenyl)-7H-pyrrolo[2,3-d]pyrimidin-2-yl)cyclopropanecarboxamide]
IC50: < 20 nM

CC1CC1C(=O)N1CC=C(c2cc(NC(=O)C3CC3)nc3[nH]ccc23)CC1 (stereo not drawn) [Example 273, N-(4-(1-(2-methylcyclopropane-1-carbonyl)-1,2,3,6-tetrahydropyridin-4-yl)-1H-pyrrolo[2,3-b]pyridin-6-yl)cyclopropanecarboxamide]
IC50: 20 to 200 nM

O=C(Nc1nc(-c2ccc(CN3CCS(=O)(=O)CC3)cc2)c2nc[nH]c2n1)C1CC1 [Example 592, N-(6-(4-((1,1-dioxidothiomorpholino)methyl)phenyl)-9H-purin-2-yl)cyclopropanecarboxamide]
IC50: > 200 nM

CN(C)S(=O)(=O)N1CCN(c2cc(NC(=O)C3CC3)nc3[nH]ccc23)CC1 [Example 674, N-(4-(4-(N,N-dimethylsulfamoyl)piperazin-1-yl)-1H-pyrrolo[2,3-b]pyridin-6-yl)cyclopropanecarboxamide]
IC50: > 200 nM

N#CCCCS(=O)(=O)N1CC=C(c2cc(NC(=O)C3CC3)nc3[nH]ccc23)CC1 [Example 170, N-(4-(1-((3-cyanopropyl)sulfonyl)-1,2,3,6-tetrahydropyridin-4-yl)-1H-pyrrolo[2,3-b]pyridin-6-yl)cyclopropanecarboxamide]
IC50: 20 to 200 nM

N#CC1(CS(=O)(=O)N2CCN(c3cc(NC(=O)C4CC4)nc4[nH]ccc34)CC2)CC1 [Example 662, N-(4-(4-(((1-cyanocyclopropyl)methyl)sulfonyl)piperazin-1-yl)-1H-pyrrolo[2,3-b]pyridin-6-yl)cyclopropanecarboxamide]
IC50: > 200 nM

CCS(=O)(=O)Nc1ccc(-c2nc(NC(=O)C3CC3)nc3[nH]ccc23)cc1 [Example 182, N-(4-(4-(ethylsulfonamido)phenyl)-7H-pyrrolo[2,3-d]pyrimidin-2-yl)cyclopropanecarboxamide]
IC50: 20 to 200 nM

C=CCS(=O)(=O)Oc1ccc(-c2cc(NC(=O)C3CC3)nc3[nH]ccc23)cc1 [Example 636, 4-(6-(cyclopropanecarboxamido)-1H-pyrrolo[2,3-b]pyridin-4-yl)phenyl prop-2-ene-1-sulfonate]
IC50: < 20 nM

O=C(Nc1cc(-c2ccc(NS(=O)(=O)c3ccc(Br)cc3)cc2)c2cc[nH]c2n1)C1CC1 [Example 20, N-(4-(4-((4-bromophenyl)sulfonamido)phenyl)-1H-pyrrolo[2,3-b]pyridin-6-yl)cyclopropanecarboxamide]
IC50: 20 to 200 nM

CC1CN(C(=O)c2ccc(Cl)cc2)CC=C1c1cc(NC(=O)C2CC2)nc2[nH]ccc12 (stereo not drawn) [Example 333, N-(4-(1-(4-chlorobenzoyl)-3-methyl-1,2,3,6-tetrahydropyridin-4-yl)-1H-pyrrolo[2,3-b]pyridin-6-yl)cyclopropanecarboxamide]
IC50: 20 to 200 nM

O=C(Nc1cc(N2CCN(S(=O)(=O)CCCF)CC2)c2cc[nH]c2n1)C1CC1 [Example 663, N-(4-(4-((3-fluoropropyl)sulfonyl)piperazin-1-yl)-1H-pyrrolo[2,3-b]pyridin-6-yl)cyclopropanecarboxamide]
IC50: > 200 nM
